The subject of this assay is HIV-1 (H9/IIIB strain). Kind of assay: Multiple round HIV-1 infection assay in MT4-GFP cells (wild type cell assay, Viking). Format: cell-based. Conditions: MT4-GFP cells infected with HIV-1 H9/IIIB, inhibition of reproductive ratio R0, ~48 h and ~72 h post-infection. Here is the method: The antiviral activity of the Examples herein was assessed in an assay that measures the rate of replication of HIV in cell culture, and performed according to the following procedure. HIV-1 replication was monitored using MT4-gag-GFP clone D3 (hereafter designated MT4-GFP), which are MT-4 cells modified to harbor a GFP reporter gene, the expression of which is dependent on the HIV-1 expressed proteins tat and rev. Productive infection of an MT4-GFP cell with HIV-1 results in GFP expression approximately 24 h post-infection. MT4-GFP cells were maintained at 37° C./5% CO2/90% relative humidity in RPMI 1640 supplemented with 10% fetal bovine serum, 100 U/ml penicillin/streptomycin, and 400 μg/ml G418 to maintain the reporter gene. For infections, MT4-GFP cells were placed in the same medium lacking G418 and infected overnight with HIV-1 (H9/IIIB strain) virus at an approximate multiplicity of infection of 0.01 in the same incubation conditions. Cells were then washed and re-suspended in either RPMI 1640 at 2×10^5 cells/mL (0% NHS condition) or 100% normal human serum (NHS) at 2×10^5 cells/mL (100% NHS condition). Compound plates were prepared by dispensing compounds dissolved in DMSO into wells of 384 well poly-D-lysine-coated plates (0.2 μl/well) using an ECHO acoustic dispenser. Each compound was tested in a 10-point serial 3-fold dilution (typical final concentrations: 1050 nM-0.05 nM for 0% NHS condition or 42 μM-2.13 nM for 100% NHS condition). Controls included no inhibitor (DMSO only) and a combination of three antiviral agents (efavirenz, indinavir, an in-house integrase strand transfer inhibitor at final concentrations of 4 μM each). Cells were added ([…]) to compound plates and the infected cells were maintained at 37° C./5% CO2/90% relative humidity.
Infected cells were quantified at two time points, ˜48 h and ˜72 h post-infection, by counting the number of green cells in each well using an Acumen eX3 scanner. The increase in the number of green cells over ˜24 h period gives the reproductive ratio, R0, which is typically 5-15 and has been shown experimentally to be in logarithmic phase (data not shown). Inhibition of R0 is calculated for each well, and IC50s determined by non-linear 4-parameter curve fitting.

The mark [1] stands for this setting: 0% NHS condition (RPMI 1640), read-out: WILD TYPE CELL ASSAY Viking IP (0% NHS).
The mark [2] stands for this setting: 100% normal human serum condition, read-out: WILD TYPE CELL ASSAY Viking IP (100% NHS).
Where [3] appears, read: Human immunodeficiency virus 1, IIIB, 0% NHS condition (RPMI 1640), read-out: WILD TYPE CELL ASSAY Viking IP (0% NHS).
Setting [4] is: Human immunodeficiency virus 1, IIIB, 100% normal human serum condition, read-out: WILD TYPE CELL ASSAY Viking IP (100% NHS).

Read-outs that look alike come from different tables or passages of the source.

As to `CN1CC2(C)CC(O)c3c(C(=O)NCc4c(F)cc(F)cc4F)c(=O)c(O)c(n32)C1=O` (stereo not drawn) [Compound 28], the IC50 worked out at 1 nM under setting [1] and 129 nM under setting [2].

On to `CCC12CC(O)c3c(C(=O)NCc4cccc(Cl)c4F)c(=O)c(O)c(n31)C(=O)N(C)C2` (single isomer, unassigned) [Compound 42], for which the IC50 stood at 2.8 nM under setting [1] and 59.3 nM under setting [2].

On to `CC1N(C)C(=O)c2c(O)c(=O)c(C(=O)NCc3ccc(F)cc3F)c3n2C1(C)CC3O` (single isomer, unassigned) [Compound 70], for which the IC50 under setting [1] was determined as 1.2 nM and the IC50 under setting [2] worked out at 26.3 nM.

For `CC1C(O)c2c(C(=O)NCc3ccc(F)cc3F)c(=O)c(O)c3n2C1(C)CN(C)C3=O` (single isomer, unassigned) [Compound 74], the IC50 reads like this: under setting [1], 1.6 nM; under setting [2], 38.4 nM.

For `CN1CC2(C)CC(O)c3c(C(=O)NCc4ccc(F)cc4)c(=O)c(O)c(n32)C1=O` (stereo not drawn) [Compound 23], the IC50 by setting is: under setting [3], 1.9 nM; under setting [4], 121 nM.

With `CC1N(C)C(=O)c2c(O)c(=O)c(C(=O)NCc3ccc(F)cc3F)c3n2C1(C)CC3O` (single isomer, unassigned) [Compound 72], the IC50 is, setting by setting: under setting [1], 1.3 nM; under setting [2], 15.8 nM.

On to `CCC12CC(O)c3c(C(=O)NCc4c(F)ccc(Cl)c4F)c(=O)c(O)c(n31)C(=O)N(C)C2` (stereo not drawn) [Compound 56], for which the IC50 runs as follows: under setting [1], 3.4 nM; under setting [2], 891 nM.

With `CN1CC2(C)CC(O)c3c(C(=O)NCc4cccc(Cl)c4F)c(=O)c(O)c(n32)C1=O` (single isomer, unassigned) [Compound 34], the IC50 is, setting by setting: under setting [1], 2.1 nM; under setting [2], 178 nM.

On to `CC1C(O)c2c(C(=O)NCc3ccc(F)cc3F)c(=O)c(O)c3n2C1(C)CN(C)C3=O` (single isomer, unassigned) [Compound 80], for which the IC50 is, setting by setting: under setting [1], 2.8 nM; under setting [2], 192 nM.

`CN1CC2(C)CC(O)c3c(C(=O)NCc4c(F)ccc(Cl)c4F)c(=O)c(O)c(n32)C1=O` (stereo not drawn) [Compound 32]: the IC50 was 2.1 nM under setting [1] and 55.7 nM under setting [2].

With `CCC12CC(O)c3c(C(=O)NCc4ccc(F)cc4F)c(=O)c(O)c(n31)C(=O)N(C)C2` (single isomer, unassigned) [Compound 40], the IC50 reads like this: under setting [1], 1.9 nM; under setting [2], 39.1 nM.

On to `CCN1CC2(COC)CC(O)c3c(C(=O)NCc4ccc(F)cc4F)c(=O)c(O)c(n32)C1=O` (single isomer, unassigned) [Compound 59], for which the IC50 by setting is: under setting [1], 3.2 nM; under setting [2], 106 nM.

As for `CN1CC2(C)CC(O)c3c(C(=O)NCc4c(F)ccc(Cl)c4F)c(=O)c(O)c(n32)C1=O` (stereo not drawn) [Compound 31], the IC50 under setting [3] is 1.7 nM and the IC50 under setting [2] stood at 268 nM.

As for `CCC12CC(O)c3c(C(=O)NCc4c(F)cc(F)cc4F)c(=O)c(O)c(n31)C(=O)N(C)C2` (stereo not drawn) [Compound 48], the IC50 under setting [1] turned out to be 2.1 nM and the IC50 under setting [2] is 261 nM.

For `CN1CC2(C)CC(O)c3c(C(=O)NCc4c(F)ccc(Cl)c4F)c(=O)c(O)c(n32)C1=O` (single isomer, unassigned) [Compound 29], the IC50 by setting is: under setting [3], 1.9 nM; under setting [2], 3130 nM.

As for `CN1CC2(C)CC(O)c3c(C(=O)NCc4cccc(Cl)c4F)c(=O)c(O)c(n32)C1=O` (single isomer, unassigned) [Compound 33], the IC50 under setting [3] worked out at 3 nM and the IC50 under setting [2] stood at 1200 nM.

On to `CC1C(O)c2c(C(=O)NCc3ccc(F)cc3F)c(=O)c(O)c3n2C1(C)CN(C)C3=O` (single isomer, unassigned) [Compound 73], for which the IC50 under setting [1] was determined as 2.3 nM and the IC50 under setting [2] was determined as 387 nM.

Regarding `CCN1CC2(CCOC(F)F)CC(O)c3c(C(=O)NCc4ccc(F)cc4F)c(=O)c(O)c(n32)C1=O` (single isomer, unassigned) [Compound 1], the IC50 reads like this: under setting [1], 7.6 nM; under setting [2], 237 nM.

With `CCN1CC2(COC)CC(O)c3c(C(=O)NCc4ccc(F)cc4F)c(=O)c(O)c(n32)C1=O` (single isomer, unassigned) [Compound 60], the IC50 runs as follows: under setting [1], 7.1 nM; under setting [2], 1260 nM.

Regarding `CCC12CC(O)c3c(C(=O)NCc4ccc(F)cc4F)c(=O)c(O)c(n31)C(=O)N(C)C2` (single isomer, unassigned) [Compound 38], the IC50 is, setting by setting: under setting [1], 1.2 nM; under setting [2], 32.5 nM.

For `CC1C(O)c2c(C(=O)NCc3ccc(F)cc3F)c(=O)c(O)c3n2C1(C)CN(C)C3=O` (single isomer, unassigned) [Compound 75], the IC50 is, setting by setting: under setting [1], 2.5 nM; under setting [2], 172 nM.

Regarding `CC1N(C)C(=O)c2c(O)c(=O)c(C(=O)NCc3ccc(F)cc3F)c3n2C1(C)CC3O` (single isomer, unassigned) [Compound 66], the IC50 runs as follows: under setting [1], 1.4 nM; under setting [2], 32.3 nM.

Turning to `CC1C(O)c2c(C(=O)NCc3ccc(F)cc3F)c(=O)c(O)c3n2C1(C)CN(C)C3=O` (single isomer, unassigned) [Compound 76], the IC50 amounted to 2.5 nM under setting [1] and 237 nM under setting [2].

Consider `CN1CC2(C)CC(O)c3c(C(=O)NCc4ccc(F)cc4)c(=O)c(O)c(n32)C1=O` (single isomer, unassigned) [Compound 21], for which the IC50 stood at 3.7 nM under setting [3] and 927 nM under setting [2].

`CCN1CC2(COC)CC(O)c3c(C(=O)NCc4c(F)cc(F)cc4F)c(=O)c(O)c(n32)C1=O` (single isomer, unassigned) [Compound 61]: the IC50 runs as follows: under setting [3], 2.3 nM; under setting [4], 95.9 nM.

In the case of `CC1N(C)C(=O)c2c(O)c(=O)c(C(=O)NCc3ccc(F)cc3F)c3n2C1(C)CC3O` (single isomer, unassigned) [Compound 65], the IC50 by setting is: under setting [1], 1.7 nM; under setting [2], 107 nM.

Consider `CCC12CC(O)c3c(C(=O)NCc4c(F)cc(F)cc4F)c(=O)c(O)c(n31)C(=O)N(C)C2` (single isomer, unassigned) [Compound 46], for which the IC50 reads like this: under setting [1], 1.6 nM; under setting [2], 36.8 nM.

As for `CCN1CC2(CCOC(F)F)CC(O)c3c(C(=O)NCc4ccc(F)cc4F)c(=O)c(O)c(n32)C1=O` (single isomer, unassigned) [Compound 2], the IC50 reads like this: under setting [1], 6.3 nM; under setting [2], 94.9 nM.

`CC1C(O)c2c(C(=O)NCc3ccc(F)cc3F)c(=O)c(O)c3n2C1(C)CN(C)C3=O` (single isomer, unassigned) [Compound 79]: the IC50 by setting is: under setting [1], 4.5 nM; under setting [2], 942 nM.

For `CCC12CC(O)c3c(C(=O)NCc4c(F)ccc(Cl)c4F)c(=O)c(O)c(n31)C(=O)N(C)C2` (single isomer, unassigned) [Compound 53], the IC50 worked out at 2.6 nM under setting [3] and 4370 nM under setting [2].

With `CCC12CC(O)c3c(C(=O)NCc4ccc(F)cc4F)c(=O)c(O)c(n31)C(=O)N(C)C2` (single isomer, unassigned) [Compound 37], the IC50 came out at 2.2 nM under setting [1] and 547 nM under setting [2].

Consider `CCC12CC(O)c3c(C(=O)NCc4c(F)cc(F)cc4F)c(=O)c(O)c(n31)C(=O)N(C)C2` (single isomer, unassigned) [Compound 45], for which the IC50 under setting [3] is 1.1 nM and the IC50 under setting [2] was 17.9 nM.

On to `CCC12CC(O)c3c(C(=O)NCc4c(F)ccc(F)c4F)c(=O)c(O)c(n31)C(=O)N(C)C2` (stereo not drawn) [Compound 52], for which the IC50 is, setting by setting: under setting [1], 2.7 nM; under setting [2], 150 nM.

The values are drawn from patent publication US20210115044A1, “TRICYCLIC HETEROCYCLE COMPOUNDS USEFUL AS HIV INTEGRASE INHIBITORS” (Merck Sharp & Dohme Corp., priority 2018, published 2021).
